# Starred links: 1 amine or outer side, 2 acyl side, 3 side chain; linkers in the order of their positions; H or OH if unused. Non-standard residues stand in square brackets, D forms with d. Residues, ends and D or L forms follow the SMILES beside them. Groups on a side chain read outwards from the residue. *: point of attachment. C20 diacid = O=C(O)CCCCCCCCCCCCCCCCCCC(=O)*; C18 diacid = O=C(O)CCCCCCCCCCCCCCCCC(=O)*; γGlu = O=C(O)[C@H](CCC(=O)[*:2])N[*:1]; αMeF = C[C@](N)(Cc1ccccc1)C(=O)O; AEEA = NCCOCCOCC(=O)O; Aib = CC(C)(N)C(=O)O
# Columns and labels:
# [1] = biological target: human glucagon receptor (hGCGR) (Homo sapiens, UniProt P47871); assay: cAMP production (HTRF) in CHO cells expressing hGCGR; format: cell-based; parameters: expressed in transfected cells; details: Table 7, peptides modified at position 20; cAMP in CHO hGCGR cells; geometric mean; read-out: hGluc-R EC50
# Outline: (§1)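 Cells were resuspended in assay buffer at batch-optimized density, typically 1×10^5 cells/mL for hGLP-1R and 2×10^5 cells/mL for hGCGR. After 30 min incubation at room temperature with compound, cAMP was measured by two-step HTRF. EC50 values came from 4-parameter logistic fits of % Delta F.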
# [2] = biological target: human GLP-1 receptor (hGLP-1R) (Homo sapiens, UniProt P43220); assay: cAMP production (HTRF) in CHO cells expressing hGLP-1R; format: cell-based; parameters: expressed in transfected cells; details: for EC50: Table 7, peptides modified at position 20, cAMP in CHO hGLP-1R cells, geometric mean, read-out: hGLP-1R EC50; for % Relative Potency Ratio: Table 7, % GLP-1R activity relative to GLP-1 / % GlucR activity relative to glucagon
# Outline: as §1
# Chain of human GLP-1 receptor (hGLP-1R) (P43220 24-463): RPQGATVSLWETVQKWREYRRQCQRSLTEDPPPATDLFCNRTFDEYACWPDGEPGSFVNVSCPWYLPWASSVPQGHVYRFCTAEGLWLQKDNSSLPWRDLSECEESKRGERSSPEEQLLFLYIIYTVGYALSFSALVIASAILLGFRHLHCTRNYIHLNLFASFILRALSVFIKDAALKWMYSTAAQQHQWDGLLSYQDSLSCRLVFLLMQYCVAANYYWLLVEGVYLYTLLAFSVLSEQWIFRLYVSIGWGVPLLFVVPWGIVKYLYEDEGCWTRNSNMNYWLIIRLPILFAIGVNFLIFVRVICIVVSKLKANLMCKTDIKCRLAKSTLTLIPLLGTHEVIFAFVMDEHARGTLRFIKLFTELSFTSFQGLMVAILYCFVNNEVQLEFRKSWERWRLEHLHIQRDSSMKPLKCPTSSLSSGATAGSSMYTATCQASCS
# Chain of human glucagon receptor (hGCGR) (P47871 26-477): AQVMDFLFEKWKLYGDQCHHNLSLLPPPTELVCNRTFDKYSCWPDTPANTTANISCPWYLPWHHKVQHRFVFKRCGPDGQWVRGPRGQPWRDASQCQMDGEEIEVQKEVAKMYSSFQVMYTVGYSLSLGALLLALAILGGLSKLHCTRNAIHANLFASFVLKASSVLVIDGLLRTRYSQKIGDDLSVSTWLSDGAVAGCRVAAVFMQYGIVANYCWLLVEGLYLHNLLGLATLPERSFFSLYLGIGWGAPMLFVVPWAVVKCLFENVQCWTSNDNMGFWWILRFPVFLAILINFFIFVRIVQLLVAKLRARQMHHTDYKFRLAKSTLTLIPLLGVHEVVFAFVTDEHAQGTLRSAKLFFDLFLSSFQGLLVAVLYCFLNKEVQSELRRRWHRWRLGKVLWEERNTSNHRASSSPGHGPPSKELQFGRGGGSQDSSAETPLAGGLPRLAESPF
Structure (SMILES),EC50 [1] [nM],EC50 [2] [nM],% Relative Potency Ratio [2]
CC[C@H](C)[C@H](NC(=O)C(C)(C)NC(=O)[C@H](CCC(N)=O)NC(=O)[C@@H](NC(=O)[C@H](Cc1ccccc1)NC(=O)[C@H](CC(=O)O)NC(=O)[C@H](CCCCNC(=O)COCCOCCNC(=O)COCCOCCNC(=O)CC[C@H](NC(=O)CC[C@H](NC(=O)CCCCCCCCCCCCCCCCCCC(=O)O)C(=O)O)C(=O)O)NC(=O)[C@H](C)NC(=O)[C@H](C)NC(=O)[C@H](CCCNC(=N)N)NC(=O)[C@H](CO)NC(=O)[C@H](CC(=O)O)NC(=O)[C@H](CC(C)C)NC(=O)[C@](C)(Cc1ccccc1)NC(=O)[C@H](CCCCN)NC(=O)[C@H](CO)NC(=O)[C@@H](NC(=O)[C@H](CC(=O)O)NC(=O)[C@H](CO)NC(=O)[C@@H](NC(=O)[C@](C)(Cc1ccccc1)NC(=O)[C@H](CO)NC(=O)CNC(=O)[C@H](Cc1c[nH]cn1)NC(=O)C(C)(C)NC(=O)[C@@H](N)Cc1c[nH]cn1)[C@@H](C)O)C(C)C)C(C)C)C(=O)N[C@@H](C)C(=O)N[C@@H](CC(N)=O)C(=O)N[C@H](C(N)=O)[C@@H](C)O [Peptide 221] (H-H[Aib]HGS[αMeF]TSDVSK[αMeF]LDSRAAK([AEEA-AEEA-γGlu-γGlu-C20 diacid])DFVQ[Aib]IANT-NH2; N-terminus assumed),0.123,0.122,2.0
CC[C@H](C)[C@H](NC(=O)[C@H](CO)NC(=O)[C@H](CCC(N)=O)NC(=O)[C@@H](NC(=O)[C@H](Cc1ccccc1)NC(=O)[C@H](CC(=O)O)NC(=O)[C@H](CCCCNC(=O)COCCOCCNC(=O)COCCOCCNC(=O)CC[C@H](NC(=O)CCCCCCCCCCCCCCCCC(=O)O)C(=O)O)NC(=O)[C@H](C)NC(=O)[C@H](C)NC(=O)[C@H](CCC(N)=O)NC(=O)[C@H](CO)NC(=O)[C@H](CC(=O)O)NC(=O)[C@H](CC(C)C)NC(=O)[C@](C)(Cc1ccccc1)NC(=O)[C@H](CCCCN)NC(=O)[C@H](CO)NC(=O)[C@@H](NC(=O)[C@H](CC(=O)O)NC(=O)[C@H](CO)NC(=O)[C@@H](NC(=O)[C@](C)(Cc1ccccc1)NC(=O)[C@H](CO)NC(=O)CNC(=O)[C@H](Cc1c[nH]cn1)NC(=O)C(C)(C)NC(=O)[C@@H](N)Cc1c[nH]cn1)[C@@H](C)O)C(C)C)C(C)C)C(=O)N[C@@H](C)C(=O)N[C@@H](CC(N)=O)C(=O)N[C@H](C(N)=O)[C@@H](C)O [Peptide 222] (H-H[Aib]HGS[αMeF]TSDVSK[αMeF]LDSQAAK([AEEA-AEEA-γGlu-C18 diacid])DFVQSIANT-NH2),0.244,0.151,3.2
CC[C@H](C)[C@H](NC(=O)[C@H](Cc1c[nH]c2ccccc12)NC(=O)[C@H](CCC(N)=O)NC(=O)[C@@H](NC(=O)[C@](C)(Cc1ccccc1)NC(=O)[C@H](CC(=O)O)NC(=O)[C@H](CCCCNC(=O)COCCOCCNC(=O)COCCOCCNC(=O)CC[C@H](NC(=O)CC[C@H](NC(=O)CCCCCCCCCCCCCCCCCCC(=O)O)C(=O)O)C(=O)O)NC(=O)[C@H](C)NC(=O)[C@H](C)NC(=O)[C@H](CCCNC(=N)N)NC(=O)[C@H](CO)NC(=O)[C@H](CC(=O)O)NC(=O)[C@H](CC(C)C)NC(=O)[C@](C)(Cc1ccccc1)NC(=O)[C@H](CCCCN)NC(=O)[C@H](CO)NC(=O)[C@@H](NC(=O)[C@H](CC(=O)O)NC(=O)[C@H](CO)NC(=O)[C@@H](NC(=O)[C@](C)(Cc1ccccc1)NC(=O)[C@H](CO)NC(=O)CNC(=O)[C@H](Cc1c[nH]cn1)NC(=O)C(C)(C)NC(=O)[C@@H](N)Cc1c[nH]cn1)[C@@H](C)O)C(C)C)C(C)C)C(=O)N[C@@H](C)C(=O)N[C@@H](CC(N)=O)C(=O)N[C@H](C(N)=O)[C@@H](C)O [Peptide 228] (H-H[Aib]HGS[αMeF]TSDVSK[αMeF]LDSRAAK([AEEA-AEEA-γGlu-γGlu-C20 diacid])D[αMeF]VQWIANT-NH2; N-terminus assumed),0.177,0.2,1.7

# Results, then the molecule that gave them:
EC50 [1] [nM],EC50 [2] [nM],% Relative Potency Ratio [2],Structure (SMILES)
0.145,0.0349,8.2,CC[C@H](C)[C@H](NC(=O)C(C)(C)NC(=O)[C@H](CCC(N)=O)NC(=O)[C@@H](NC(=O)[C@](C)(Cc1ccccc1)NC(=O)[C@H](CC(=O)O)NC(=O)[C@H](CCCCNC(=O)COCCOCCNC(=O)COCCOCCNC(=O)CC[C@H](NC(=O)CCCCCCCCCCCCCCCCC(=O)O)C(=O)O)NC(=O)[C@H](C)NC(=O)[C@H](C)NC(=O)[C@H](CCCNC(=N)N)NC(=O)[C@H](CO)NC(=O)[C@H](CC(=O)O)NC(=O)[C@H](CC(C)C)NC(=O)[C@](C)(Cc1ccccc1)NC(=O)[C@H](CCCCN)NC(=O)[C@H](CO)NC(=O)[C@@H](NC(=O)[C@H](CC(=O)O)NC(=O)[C@H](CO)NC(=O)[C@@H](NC(=O)[C@](C)(Cc1ccccc1)NC(=O)[C@H](CO)NC(=O)CNC(=O)[C@H](Cc1c[nH]cn1)NC(=O)C(C)(C)NC(=O)[C@@H](N)Cc1c[nH]cn1)[C@@H](C)O)C(C)C)C(C)C)C(=O)N[C@@H](C)C(=O)N[C@@H](CC(N)=O)C(=O)N[C@H](C(=O)NCC(=O)NCC(N)=O)[C@@H](C)O [Peptide 225] (H-H[Aib]HGS[αMeF]TSDVSK[αMeF]LDSRAAK([AEEA-AEEA-γGlu-C18 diacid])D[αMeF]VQ[Aib]IANTGG-NH2)
0.0274,0.0827,0.7,CC[C@H](C)[C@H](NC(=O)C(C)(C)NC(=O)[C@H](CCC(=O)O)NC(=O)[C@@H](NC(=O)[C@](C)(Cc1ccccc1)NC(=O)[C@H](CC(=O)O)NC(=O)[C@H](CCCCNC(=O)COCCOCCNC(=O)COCCOCCNC(=O)CC[C@H](NC(=O)CCCCCCCCCCCCCCCCC(=O)O)C(=O)O)NC(=O)[C@H](C)NC(=O)[C@H](C)NC(=O)[C@H](CCCNC(=N)N)NC(=O)[C@H](CO)NC(=O)[C@H](CC(=O)O)NC(=O)[C@H](CC(C)C)NC(=O)[C@](C)(Cc1ccccc1)NC(=O)[C@H](CCCCN)NC(=O)[C@H](CO)NC(=O)[C@@H](NC(=O)[C@H](CC(=O)O)NC(=O)[C@H](CO)NC(=O)[C@@H](NC(=O)[C@](C)(Cc1ccccc1)NC(=O)[C@H](CO)NC(=O)CNC(=O)[C@H](Cc1c[nH]cn1)NC(=O)C(C)(C)NC(=O)[C@@H](N)Cc1c[nH]cn1)[C@@H](C)O)C(C)C)C(C)C)C(=O)N[C@@H](C)C(=O)N[C@@H](CC(N)=O)C(=O)N[C@H](C(N)=O)[C@@H](C)O [Peptide 226] (H-H[Aib]HGS[αMeF]TSDVSK[αMeF]LDSRAAK([AEEA-AEEA-γGlu-C18 diacid])D[αMeF]VE[Aib]IANT-NH2)
0.0272,0.0705,0.8,CC[C@H](C)[C@H](NC(=O)C(C)(C)NC(=O)[C@H](C)NC(=O)[C@@H](NC(=O)[C@](C)(Cc1ccccc1)NC(=O)[C@H](CC(=O)O)NC(=O)[C@H](CCCCNC(=O)COCCOCCNC(=O)COCCOCCNC(=O)CC[C@H](NC(=O)CCCCCCCCCCCCCCCCC(=O)O)C(=O)O)NC(=O)[C@H](C)NC(=O)[C@H](C)NC(=O)[C@H](CCCNC(=N)N)NC(=O)[C@H](CO)NC(=O)[C@H](CC(=O)O)NC(=O)[C@H](CC(C)C)NC(=O)[C@](C)(Cc1ccccc1)NC(=O)[C@H](CCCCN)NC(=O)[C@H](CO)NC(=O)[C@@H](NC(=O)[C@H](CC(=O)O)NC(=O)[C@H](CO)NC(=O)[C@@H](NC(=O)[C@](C)(Cc1ccccc1)NC(=O)[C@H](CO)NC(=O)CNC(=O)[C@H](Cc1c[nH]cn1)NC(=O)C(C)(C)NC(=O)[C@@H](N)Cc1c[nH]cn1)[C@@H](C)O)C(C)C)[C@@H](C)CC)C(=O)N[C@@H](C)C(=O)N[C@@H](CC(N)=O)C(=O)N[C@H](C(N)=O)[C@@H](C)O [Peptide 227] (H-H[Aib]HGS[αMeF]TSDVSK[αMeF]LDSRAAK([AEEA-AEEA-γGlu-C18 diacid])D[αMeF]IA[Aib]IANT-NH2)
